Laboratory results taken from patent US9688699B2, “3-(pyrimidine-2-yl)imidazo[1,2-a]pyridines” (Bayer Pharma Aktiengesellschaft, priority 2014, dated 2017).
Counter-ions that a name gives are not always drawn.

Columns and labels:
[1] = biological target: T1, human phosphodiesterase 5 (PDE 5) (Homo sapiens, UniProt O76074); experiment: Inhibition of human phosphodiesterase 5 (PDE 5) (B-3); type: biochemical; settings: PDE 5 preparation from human platelets; [8-3H] cGMP substrate, SPA; in some cases means of individual determinations
T1 construct: PDE 5 preparations are obtained from human platelets by disruption; from tissue; host or cells: human platelets (Mono Q ion exchange fractions with PDE 5 activity)
Procedure: B-3. Inhibition of Human Phosphodiesterase 5 (PDE 5)
PDE 5 preparations are obtained from human platelets by disruption (Microfluidizer®, 800 bar, 3 passes), followed by centrifugation (75 000 g, 60 min, 4° C.) and ion exchange chromatography of the supernatant on a Mono Q 10/10 column (linear sodium chloride gradient, elution with a 0.2-0.3M solution of sodium chloride in buffer (20 mM Hepes pH 7.2, 2 mM magnesium chloride). Fractions having PDE 5 activity are combined (PDE 5 preparation) and stored at −80° C.
To determine their in vitro action on human PDE 5, the test substances are dissolved in 100% DMSO and serially diluted. Typically, dilution series (1:3) from 200 μM to 0.091 μM are prepared (resulting final concentrations in the test: 4 μM to 0.0018 μM). In each case 2 μl of the diluted substance solutions are placed into the wells of microtitre plates (Isoplate-96/200 W; Perkin Elmer). Subsequently, 50 μl of a dilution of the above-described PDE 5 preparation are added. The dilution of the PDE 5 preparation is chosen such that during the later incubation less than 70% of the substrate are converted (typical dilution: 1:100; dilution buffer: 50 mM tris/hydrochloric acid pH 7.5, 8.3 mM magnesium chloride, 1.7 mM EDTA, 0.2% BSA). The substrate, [8-^3H] cyclic guanosine-3′,5′-monophosphate (1 μCi/μl; Perkin Elmer), is diluted 1:2000 with assay buffer (50 mM tris/hydrochloric acid pH 7.5, 8.3 mM magnesium chloride, 1.7 mM EDTA) to a concentration of 0.0005 μCi/μl. By addition of 50 μl (0.025 μCi) of the diluted substrate, the enzyme reaction is finally started. The test mixtures are incubated at room temperature for 60 min and the reaction is stopped by adding 25 μl of a suspension of 18 mg/ml yttrium scintillation proximity beads in water (phosphodiesterase beads for SPA assays, RPNQ 0150, Perkin Elmer). The microtitre plates are sealed with a film and left to stand at room temperature for 60 min. Subsequently, the plates are analysed for 30 s per well in a Microbeta scintillation counter (Perkin Elmer). IC50 values are determined using the graphic plot of the substance concentration against percentage PDE 5 inhibition.

[2] = biological target: T2, recombinant guanylate cyclase reporter cell line (Rattus norvegicus, UniProt P19686+P20595); experiment: Effect on a recombinant guanylate cyclase reporter cell line (B-2); type: cell-based; settings: MEC = minimum effective concentration, in some cases mean values for individual determinations
T2 construct: expressed in transfected cells
T2 sequence (P19686 1-690): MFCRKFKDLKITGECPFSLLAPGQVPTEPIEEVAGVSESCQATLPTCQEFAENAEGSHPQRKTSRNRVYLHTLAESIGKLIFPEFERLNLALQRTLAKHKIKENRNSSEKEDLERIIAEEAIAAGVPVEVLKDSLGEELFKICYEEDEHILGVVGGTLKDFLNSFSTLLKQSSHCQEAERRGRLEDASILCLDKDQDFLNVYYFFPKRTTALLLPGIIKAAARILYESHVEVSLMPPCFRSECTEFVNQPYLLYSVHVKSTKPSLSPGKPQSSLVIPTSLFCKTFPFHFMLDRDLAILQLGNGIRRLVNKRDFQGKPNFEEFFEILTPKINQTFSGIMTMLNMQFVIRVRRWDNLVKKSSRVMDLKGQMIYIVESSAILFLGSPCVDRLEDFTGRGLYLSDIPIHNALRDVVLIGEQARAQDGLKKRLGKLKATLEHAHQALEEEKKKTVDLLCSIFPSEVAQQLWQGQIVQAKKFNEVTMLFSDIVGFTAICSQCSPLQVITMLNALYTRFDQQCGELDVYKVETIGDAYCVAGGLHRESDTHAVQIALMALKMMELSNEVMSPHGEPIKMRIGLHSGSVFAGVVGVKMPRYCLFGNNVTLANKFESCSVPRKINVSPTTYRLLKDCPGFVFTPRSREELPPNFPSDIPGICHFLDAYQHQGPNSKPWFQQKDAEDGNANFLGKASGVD
T2 sequence (P20595 1-619): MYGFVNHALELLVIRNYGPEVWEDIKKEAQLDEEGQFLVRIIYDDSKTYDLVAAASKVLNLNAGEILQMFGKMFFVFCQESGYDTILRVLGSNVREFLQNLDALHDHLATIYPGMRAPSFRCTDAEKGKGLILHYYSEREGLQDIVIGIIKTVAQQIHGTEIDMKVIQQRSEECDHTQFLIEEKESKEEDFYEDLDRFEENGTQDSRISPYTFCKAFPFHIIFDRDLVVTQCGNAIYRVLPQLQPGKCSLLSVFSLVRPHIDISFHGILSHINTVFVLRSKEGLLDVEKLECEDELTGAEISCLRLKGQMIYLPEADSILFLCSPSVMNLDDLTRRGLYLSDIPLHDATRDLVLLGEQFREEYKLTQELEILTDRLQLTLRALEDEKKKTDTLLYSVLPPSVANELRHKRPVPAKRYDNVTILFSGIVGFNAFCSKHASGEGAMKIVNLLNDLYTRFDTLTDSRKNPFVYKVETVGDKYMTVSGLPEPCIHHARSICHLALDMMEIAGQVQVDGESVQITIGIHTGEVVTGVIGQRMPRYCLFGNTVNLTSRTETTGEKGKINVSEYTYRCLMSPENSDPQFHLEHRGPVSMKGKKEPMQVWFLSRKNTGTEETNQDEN
Procedure: B-2. Effect on a Recombinant Guanylate Cyclase Reporter Cell Line
The cellular activity of the compounds according to the invention is determined using a recombinant guanylate cyclase reporter cell line, as described in F. Wunder et al., Anal. Biochem. 339, 104-112 (2005).
Representative MEC values (MEC=minimum effective concentration) for the compounds of the invention are shown in Table 1 below (in some cases as mean values for individual determinations): […]

Row | IC50 [1] [µM] | MEC [2] [µM] | SMILES
1 | 0.035 | 1 | COCC(C)(N)CNc1nc(-c2c(C)nc3c(OCc4c(F)ccc(F)c4F)cccn23)nc2c1C(C)(C)C(=O)N2 (racemic) [Example 35, rac-4-[(2-amino-3-methoxy-2-methylpropyl)amino]-5,5-dimethyl-2-{2-methyl-8-[(2,3,6-trifluorobenzyl)oxy]imidazo[1,2-a]pyridin-3-yl}-5,7-dihydro-6H-pyrrolo[2,3-d]pyrimidin-6-one formate]
2 | 0.73 | 3 | Cc1nc2c(OCc3c(F)ccc(F)c3F)cccn2c1-c1nc2c(c(C(=O)N3CC(N)C(F)(F)C3)n1)C(C)(C)C(=O)N2 (racemic) [Example 61, rac-4-[(4-amino-3,3-difluoropyrrolidin-1-yl)carbonyl]-5,5-dimethyl-2-{2-methyl-8-[(2,3,6-trifluorobenzyl)oxy]imidazo[1,2-a]pyridin-3-yl}-5,7-dihydro-6H-pyrrolo[2,3-d]pyrimidin-6-one trifluoroacetate]
3 | 0.4 | 3 | Cc1nc2c(OCc3c(F)ccc(F)c3F)cccn2c1-c1nc2c(c(C(=O)N3CCC(O)C3)n1)C(C)(C)C(=O)N2 (racemic) [Example 62, rac-4-[(3-hydroxypyrrolidin-1-yl)carbonyl]-5,5-dimethyl-2-{2-methyl-8-[(2,3,6-trifluorobenzyl)oxy]imidazo[1,2-a]pyridin-3-yl}-5,7-dihydro-6H-pyrrolo[2,3-d]pyrimidin-6-one]
4 | 0.22 | 3 | Cc1nc2c(OCc3c(F)ccc(F)c3F)cccn2c1-c1nc2c(c(C(=O)N3CCC(CO)C3)n1)C(C)(C)C(=O)N2 (racemic) [Example 63, rac-4-{[3-(hydroxymethyl)pyrrolidin-1-yl]carbonyl}-5,5-dimethyl-2-{2-methyl-8-[(2,3,6-trifluorobenzyl)oxy]imidazo[1,2-a]pyridin-3-yl}-5,7-dihydro-6H-pyrrolo[2,3-d]pyrimidin-6-one]
5 | 0.011 | 1 | Cc1nc2c(OCc3c(F)cccc3F)cccn2c1-c1nc2c(c(N3C[C@H]4C[C@@]4(N)C3)n1)C(C)(C)C(=O)N2 (relative stereo) [Example 32, rac-rel-4-[(1R,5S)-1-amino-3-azabicyclo[3.1.0]hex-3-yl]-2-{8-[(2,6-difluorobenzyl)oxy]-2-methylimidazo[1,2-a]pyridin-3-yl}-5,5-dimethyl-5,7-dihydro-6H-pyrrolo[2,3-d]pyrimidin-6-one formate]

The next lines start with the molecule.

Row | SMILES | IC50 [1] [µM] | MEC [2] [µM]
6 | COc1ccc(CC(C)(N)CNc2nc(-c3c(C)nc4c(OCc5c(F)cccc5F)cccn34)nc3c2C(C)(C)C(=O)N3)cc1 (racemic) [Example 20, rac-4-{[2-amino-3-(4-methoxyphenyl)-2-methylpropyl]amino}-2-{8-[(2,6-difluorobenzyl)oxy]-2-methylimidazo[1,2-a]pyridin-3-yl}-5,5-dimethyl-5,7-dihydro-6H-pyrrolo[2,3-d]pyrimidin-6-one] | 0.11 | 3
7 | COCC(C)(N)CNc1nc(-c2c(C)nc3c(OCc4c(F)cccc4F)cccn23)nc2c1C(C)(C)C(=O)N2 (racemic) [Example 21, rac-4-[(2-amino-3-methoxy-2-methylpropyl)amino]-2-{8-[(2,6-difluorobenzyl)oxy]-2-methylimidazo[1,2-a]pyridin-3-yl}-5,5-dimethyl-5,7-dihydro-6H-pyrrolo[2,3-d]pyrimidin-6-one] | 0.022 | 0.3
8 | Cc1nc2c(OCc3c(F)cccc3F)cccn2c1-c1nc(NCC(N)C(F)(F)F)c2c(n1)NC(=O)C2(C)C (racemic) [Example 25, rac-4-[(2-amino-3,3,3-trifluoropropyl)amino]-2-{8-[(2,6-difluorobenzyl)oxy]-2-methylimidazo[1,2-a]pyridin-3-yl}-5,5-dimethyl-5,7-dihydro-6H-pyrrolo[2,3-d]pyrimidin-6-one] | 0.015 | 3
9 | Cc1nc2c(OCc3c(F)cccc3F)cccn2c1-c1nc(NCC(N)C(F)(F)C(F)F)c2c(n1)NC(=O)C2(C)C (racemic) [Example 27, rac-4-[(2-amino-3,3,4,4-tetrafluorobutyl)amino]-2-{8-[(2,6-difluorobenzyl)oxy]-2-methylimidazo[1,2-a]pyridin-3-yl}-5,5-dimethyl-5,7-dihydro-6H-pyrrolo[2,3-d]pyrimidin-6-one] | 0.023 | 3
10 | Cc1nc2c(OCc3c(F)cccc3F)cccn2c1-c1nc(NCC(C)(N)C(F)F)c2c(n1)NC(=O)C2(C)C (racemic) [Example 39, rac-4-[(2-amino-3,3-difluoro-2-methylpropyl)amino]-2-{8-[(2,6-difluorobenzyl)oxy]-2-methylimidazo[1,2-a]pyridin-3-yl}-5,5-dimethyl-5,7-dihydro-6H-pyrrolo[2,3-d]pyrimidin-6-one] | 0.0096 | 0.3
11 | Cc1nc2c(OCc3c(F)cccc3F)cccn2c1-c1nc(NCC(C)(N)C(F)(F)F)c2c(n1)NC(=O)C2(C)C (racemic) [Example 40, rac-4-[(2-Amino-3,3,3-trifluoro-2-methylpropyl)amino]-2-{8-[(2,6-difluorobenzyl)oxy]-2-methylimidazo[1,2-a]pyridin-3-yl}-5,5-dimethyl-5,7-dihydro-6H-pyrrolo[2,3-d]pyrimidin-6-one] | 0.014 | 3
12 | Cc1nc2c(OCc3c(F)cccc3F)cccn2c1-c1nc(NCC(C)(C)N)c2c(n1)NC(=O)C2(C)C(F)(F)F (racemic) [Example 41, rac-4-[(2-Amino-2-methylpropyl)amino]-2-{8-[(2,6-difluorobenzyl)oxy]-2-methylimidazo[1,2-a]pyridin-3-yl}-5-methyl-5-(trifluoromethyl)-5,7-dihydro-6H-pyrrolo[2,3-d]pyrimidin-6-one] | 0.0017 | 0.1
